Laboratory results from patent US20190070165A1, “N-HYDROXYISOQUINOLINEDIONE INHIBITORS OF HBV REPLICATION” (Saint Louis University, priority 2016, published 2019).
Entries after “also recorded” stand apart in the source; their conditions may differ.

Legend:
HBV RNaseH [1] = target: T1, HBV RNaseH (Hepatitis B virus genotype D subtype ayw, UniProt P03156); assay: Molecular beacon RNaseH assay
HBV replication = HBV replication inhibition assay in HepDES19 cells (strand-preferential q-PCR); assay type: cell-based, Hepatitis B virus
HBV polymerase = target: T2, HBV polymerase (Hepatitis B virus genotype D subtype ayw, UniProt P03156); assay: Endogenous polymerase reaction (EPR) in isolated HBV capsids; assay type: biochemical; details: inhibitors at 4× EC50; #138 and #211 at 30 μM; ddTTP 5.7 μM
T2 construct: expressed in transfected cells; host or cells: HepDES19 (HepG2 with a stably transfected HBV genotype D genome)
Source text: Anti-RNaseH activity is implied from their preferential suppression of the plus-polarity DNA strand (FIG. 4), but strand-preferential inhibition could also result from inhibiting the polymerase also. This is because positive-polarity DNA synthesis can be suppressed both directly by inhibiting the RNaseH enzyme and indirectly by reducing the amount of negative-polarity DNA strand that templates the positive-polarity strand, whereas minus-polarity DNA synthesis can only be suppressed by chain termination. To determine if the efficacy of these compounds was due to inhibition of the HBV polymerase, capsids isolated from HepDES19 cells were tested in the endogenous polymerase reaction (EPR) to measure DNA chain elongation by the HBV polymerase along the HBV nucleic acids within the capsids. Isolated HBV capsids were supplied with dATP, dTTP, dGTP, and [α^32P]dCTP in the presence of inhibitors at 4× their EC50 values; negative control compounds #138 and #211 were tested at 30 μM. 1% DMSO was used as a vehicle control, and ddTTP (5.7 μM) was the positive control polymerase inhibitor. Samples were incubated at 37° C. for 7 hours to permit DNA chain elongation by the encapsidated HBV polymerase. Nucleic acids were purified, resolved on a 0.8% agarose gel and detected by autoradiography. DNAs from HBV capsids treated with the compounds incorporated ^32P similarly to DMSO control (FIG. 5).
HBV cores were harvested from HepDES19 cells grown in the absence of tetracycline for 20 days using polyethylene glycol 8000 precipitation (Guo et al., 2003). Cells were rinsed in PBS and lysed in 1 mL core lysis buffer with 2 μL of protease inhibitor cocktail (Sigma) at room temperature for 10 minutes. Cell lysates were collected and 10 mM CaCl2) was added. The lysate was centrifuged for 5 minutes at 21,000 g, the supernatant was incubated with 150 U of micrococcal nuclease at 37° C. for 60 minutes, and then 27 mM EDTA was added to stop the reaction. 333 μL of 26% PEG8000 was added to precipitate core particles and incubated at 4° C. for 6 hours. The samples were centrifuged at 21,000 g for 20 minutes at 4° C. The supernatant was removed and the pellet was resuspended in 250 μL of 10 mM Tris buffer pH 7.5. Cores were stored at −80° C.
The endogenous polymerase reaction was done using a modified procedure from (Nguyen et al., 2007). […] These nucleic acids were dissolved in tris-EDTA buffer, resolved on a 0.8% agarose gel, transferred to a HyBondN membrane, and detected by autoradiography. Band intensities for each experiment were quantified using Image J and percent inhibition was calculated relative to the DMSO-treated reactions. Statistical significance of variation in band intensities was evaluated using a one-way ANOVA with a Dunnett post hoc analysis, with p=0.05 indicating significance.

HBV RNaseH [2] = target: T1, HBV RNaseH; details: Table 3, compounds at 100, 60 and 20 μM; compounds 1-91 and 138-140 previously reported (Cai et al., 2014)
Experimental: RNaseH expression and purification. […] The enriched extracts were dialyzed into 50 mM HEPES pH 7.3, 300 mM NaCl, 20% glycerol, and 5 mM DTT and stored in liquid nitrogen.
Oligonucleotide-directed RNA cleavage assay. […] This mixture was incubated with test compounds in 50 mM Tris pH 8.0, 190 mM NaCl, 5 mM MgCl2, 3.5 mM DTT, 0.05% NP40, 6% glycerol, and 1% DMSO at 42° C. for 90 minutes. Cleavage products were resolved by denaturing polyacrylamide gel electrophoresis, detected by autoradiography, and quantified using ImageJ. Non-specific background values were determined from the incorrect oligonucleotide negative control lane and subtracted from all experimental values. IC50 values were then calculated with GraphPad Prism using three-parameter log(inhibitor) vs. response non-linear curve fitting with the curve minimum set to zero to reflect background subtraction.
The HBV RNaseH inhibition activity of the 16 previously untested compounds was examined using an oligonucleotide-directed cleavage assay. Compounds were incubated with the HBV RNaseH, a ^32P-labeled RNA substrate plus a complementary DNA oligonucleotide and compounds at 100, 60, and 20 μM and the amount of the RNA cleavage products was measured following resolution on an acrylamide gel.
Briefly, a ^32P-labeled RNA was combined with a DNA oligonucleotide and the RNA:DNA substrate was incubated in the presence of the RNaseH and test compounds in 50 mM tris pH 8.0, 190 mM NaCl, 5 mM MgCl2, 3.5 mM DTT, 0.05% NP40, 6% glycerol, and 1% DMSO at 42° C. for 90 minutes. The products were resolved by gel electrophoresis and detected by audioradioagraphy.

T1 sequence (P03156 671-832): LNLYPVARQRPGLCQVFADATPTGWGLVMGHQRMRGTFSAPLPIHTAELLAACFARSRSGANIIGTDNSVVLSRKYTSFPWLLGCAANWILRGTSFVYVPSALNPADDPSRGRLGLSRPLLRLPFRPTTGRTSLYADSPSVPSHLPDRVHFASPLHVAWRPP
T2 sequence (P03156 whole entry): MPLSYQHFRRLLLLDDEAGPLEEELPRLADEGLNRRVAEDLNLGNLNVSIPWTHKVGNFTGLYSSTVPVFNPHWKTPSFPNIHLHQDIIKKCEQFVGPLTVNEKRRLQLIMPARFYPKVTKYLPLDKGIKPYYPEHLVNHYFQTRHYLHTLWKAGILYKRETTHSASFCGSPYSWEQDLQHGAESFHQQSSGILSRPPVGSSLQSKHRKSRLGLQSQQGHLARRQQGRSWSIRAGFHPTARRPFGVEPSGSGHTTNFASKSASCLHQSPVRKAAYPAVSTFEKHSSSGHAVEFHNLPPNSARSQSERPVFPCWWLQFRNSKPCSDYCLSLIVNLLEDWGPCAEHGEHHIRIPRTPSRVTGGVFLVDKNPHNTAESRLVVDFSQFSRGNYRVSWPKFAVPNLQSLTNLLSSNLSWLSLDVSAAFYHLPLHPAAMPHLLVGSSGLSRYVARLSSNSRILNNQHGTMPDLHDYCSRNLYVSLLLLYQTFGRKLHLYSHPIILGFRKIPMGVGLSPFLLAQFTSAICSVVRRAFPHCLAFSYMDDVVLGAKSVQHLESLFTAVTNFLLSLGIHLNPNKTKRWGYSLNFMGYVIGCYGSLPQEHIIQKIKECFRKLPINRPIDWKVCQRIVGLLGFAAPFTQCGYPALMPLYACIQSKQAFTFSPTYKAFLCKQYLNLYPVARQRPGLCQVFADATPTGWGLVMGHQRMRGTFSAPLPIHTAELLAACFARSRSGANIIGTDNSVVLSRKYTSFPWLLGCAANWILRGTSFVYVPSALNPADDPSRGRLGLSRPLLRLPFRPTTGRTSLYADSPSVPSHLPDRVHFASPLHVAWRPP

O=C1c2ccccc2C(=O)N1O [Compound 138]
inhibition in the molecular beacon assay (HBV RNaseH [1]; 2.1 μg purified HBV RNaseH): had no effect on the rate of substrate degradation
Inhibition of HBV RNaseH, Molecular Beacon cleavage assay (HBV RNaseH [1]; Table 3, 0 to 500 μM): − (No inhibition detected at 500 μM)
HBV replication inhibition / activity (HBV replication; HepDES19 cells): does not inhibit HBV replication; also recorded: inactive
HBV replication inhibition (qualitative) (HBV replication; Table 3, qualitative screen at 20 μM): − (No inhibition detected at 20 μM)
effect on 32P incorporation in EPR (HBV polymerase): None of the HBV inhibitors or the two negative control compounds (#138 and 211) significantly altered incorporation
Inhibition of HBV RNaseH, Oligonucleotide directed cleavage assay (HBV RNaseH [2]): − (No inhibition detected at 100 μM)
